Key:
Assay type in all cases: cell-based
[1] = tested on: ovary (Ovcar-3); experiment: Cell viability (ATP luminescence) IC50 determination, Ovcar-3; details: Homo sapiens, Ovcar-3 cells, 72 hours incubation, vs DMSO vehicle control
Protocol: (§1) In yet another aspect of the instant invention, the IC50 or the half maximal inhibitory concentration of the candidate compounds were determined to assess drug potency and potential dosing regimens for in vivo use. One of ordinary skill in the art is readily able to ascertain such information using commonly known methodologies. As it has been well described in the art, IC50 represents and measures how much of a particular substance/molecule is needed to inhibit some biological process by 50%. In the instant case, the IC50 of the candidate compounds were determined as the concentration that led to a response of 50% compared to the vehicle control cells.
(§2) The cell lines listed are maintained at approximately 5% CO2, 37° C., 95% relative humidity in the media appropriate for that cell line. The cells are sub-cultured every two to three days and plated in clear bottom 96-well plates at a density of 1×10^4 cells/well and incubated at ca. 5% CO2, 37° C. overnight prior to initiation of the assay. To begin cell viability assays, the media in the cell plate (100 μL) is replaced with fresh media (100 μL). The test articles are serially diluted […] in fresh media in duplicate and added to the cells (100 μL) at final sample concentrations of 0.46, 1.37, 4.12, 12.35, 37.04, 111.1, 333.3 and 1000 μM (≤1% DMSO) in a total volume of 200 μL. Wells containing no cells and wells containing cells lysed with 0.1% Triton-X are used for baseline controls. Tamoxifen is used as a known control for each assay and DMSO only will be run as vehicle control. The samples are incubated at ca. 37° C. in humidified 5% CO2 atmosphere for 72 hours. The plate is monitored once a day during the incubation period, paying special attention to the level of confluence. If the cells approach confluence prior to the end of the 72 hour incubation period, the experiment is terminated and cell viability measured as described below.
(§3) Cell viability is determined using a commercially available kit to determine ATP levels by luminescence. Briefly, the cell plate has the media removed and replaced with 100 μL of fresh media, and the buffer and lyophilized substrate are equilibrated to room temperature. The buffer is used to reconstitute the substrate just prior to addition to the wells of the cell plate (100 μL per well). The plate is placed into the Infinite M200 plate reader, allowed to shake for 10 minutes followed by a 10 minute wait period. The plate is then read using an integration time of 0.5 sec with no attenuation.
(§4) The mean baseline controls (wells with Triton X-100 or no cells) are subtracted from the total luminescence to give the net luminescence for that well. This total is compared to the control of DMSO only. An IC50 is calculated as the concentration that led to a response of 50% compared to the vehicle control cells.

[2] = tested on: Pancreas (Capan-1); experiment: Cell viability (ATP luminescence) IC50 determination, Capan-1; details: Homo sapiens, Capan-1 cells, 72 hours incubation, vs DMSO vehicle control
Protocol: as §1, §2, §3, §4

[3] = tested on: lung (A549); experiment: Cell viability (ATP luminescence) IC50 determination, A549; details: Homo sapiens, A549 cells, 72 hours incubation, vs DMSO vehicle control
Protocol: as §1, §2, §3, §4

[4] = tested on: cells lines derived from breast, lung, colon, prostate, endometrial and ovarian cancers; experiment: In vitro studies of tumor cell growth inhibition in cancer cell lines; details: CYP19 positive (MDA-MB-213 and SK-OV-3) vs CYP19 negative (MCF-7 and NIH:OVCAR-3), where it is reduced

CCOCCCCC[C@@H]1C[C@@H]2[C@H](CC[C@]3(C)C(O)CC[C@@H]23)c2ccc(O)cc21 (stereo partly drawn) [Compound 31, (6R,8R,9S,13S,14S)-13-methyl-6-(5-ethoxypentyl)-7,8,9,11,12,13,14,15,16,17-decahydro-6H-cyclopenta[a]phenanthrene-3,17-diol]
IC50 [1]: 28 µM | IC50 [2]: 15 µM | IC50 [3]: 7 µM

COC[C@H]1C[C@@H]2[C@H](CC[C@]3(C)C(O)CC[C@@H]23)c2ccc(O)cc21 (stereo partly drawn) [Compound 3, (6S,8R,9S,13S,14S)-6-(methoxymethyl)-13-methyl-7,8,9,11,12,13,14,15,16,17-decahydro-6H-cyclopenta[a]phenanthrene-3,17-diol]
IC50 [1]: 94 µM | IC50 [2]: 168 µM | IC50 [3]: 84 µM

COC[C@@H]1C[C@@H]2[C@H](CC[C@]3(C)C(=O)CC[C@@H]23)[C@@]2(C)C=CC(=O)C=C12 [Compound 24, (6R,8R,9S,10R,13S,14S)-6-(methoxymethyl)-10,13-dimethyl-7,8,9,10,11,12,13,14,15,16-decahydro-3H-cyclopenta[a]phenanthrene-3,17(6H)-dione]
in vitro studies of tumor cell growth, by CYP19 status of the cell line [4]: highest in cell lines that are CYP19 positive

C[C@]12CC[C@@H]3c4ccc(O)cc4[C@H](CON)C[C@H]3[C@@H]1CCC2O (stereo partly drawn) [Compound 10, (6R,8R,9S,13S,14S)-6-((aminooxy)methyl)-13-methyl-7,8,9,11,12,13,14,15,16,17-decahydro-6H-cyclopenta[a]phenanthrene-3,17-diol]
IC50 [1]: 317 µM | IC50 [2]: 277 µM | IC50 [3]: 170 µM

COC[C@@H]1C[C@@H]2[C@H](CC[C@]3(C)C(O)CC[C@@H]23)c2ccc(O)cc21 (stereo partly drawn) [Compound 4, (6R,8R,9S,13S,14S)-6-(methoxymethyl)-13-methyl-7,8,9,11,12,13,14,15,16,17-decahydro-6H-cyclopenta[a]phenanthrene-3,17-diol]
IC50 [1]: 100 µM | IC50 [2]: 32 µM | IC50 [3]: 70 µM

CO[C@@H]1C[C@@H]2[C@H](CC[C@]3(C)C(O)CC[C@@H]23)c2ccc(O)cc21 (stereo partly drawn) [Compound 18, (6R,8R,9S,13S,14S)-6-methoxy-13-methyl-7,8,9,11,12,13,14,15,16,17-decahydro-6H-cyclopenta[a]phenanthrene-3,17-diol]
IC50 [1]: 207 µM | IC50 [2]: 192 µM | IC50 [3]: 139 µM

C[C@]12CC[C@@H]3c4ccc(O)cc4[C@H](CO)C[C@H]3[C@@H]1CCC2O (stereo partly drawn) [Compound 8, (6R,8R,9S,13S,14S)-6-(hydroxymethyl)-13-methyl-7,8,9,11,12,13,14,15,16,17-decahydro-6H-cyclopenta[a]phenanthrene-3,17-diol]
IC50 [1]: 221 µM | IC50 [2]: 212 µM | IC50 [3]: 184 µM

CCCOCCCC[C@@H]1C[C@@H]2[C@H](CC[C@]3(C)C(O)CC[C@@H]23)c2ccc(O)cc21 (stereo partly drawn) [Compound 30, (6R,8R,9S,13S,14S)-13-methyl-6-(4-propoxybutyl)-7,8,9,11,12,13,14,15,16,17-decahydro-6H-cyclopenta[a]phenanthrene-3,17-diol]
IC50 [1]: 29 µM | IC50 [2]: 10 µM | IC50 [3]: 5 µM

CCCCCCCCCCCCCCCCCC(=O)OC1CC[C@H]2[C@@H]3C[C@@H](COC)c4cc(O)ccc4[C@H]3CC[C@]12C (stereo partly drawn) [Compound 23, (6R,8R,9S,13S,14S)-3-hydroxy-6-(methoxymethyl)-13-methyl-7,8,9,11,12,13,14,15,16,17-decahydro-6H-cyclopenta[a]phenanthren-17-yl stearate]
IC50 [1]: > 1000 µM | IC50 [2]: 775 µM | IC50 [3]: > 1000 µM

COCC[C@@H]1C[C@@H]2[C@H](CC[C@]3(C)C(O)CC[C@@H]23)c2ccc(O)cc21 (stereo partly drawn) [Compound 19, (6S,8R,9S,13S,14S)-6-(2-methoxyethyl)-13-methyl-7,8,9,11,12,13,14,15,16,17-decahydro-6H-cyclopenta[a]phenanthrene-3,17-diol]
IC50 [1]: 96 µM | IC50 [2]: 32 µM | IC50 [3]: 80 µM

COCCCC[C@@H]1C[C@@H]2[C@H](CC[C@]3(C)C(O)CC[C@@H]23)c2ccc(O)cc21 (stereo partly drawn) [Compound 20, (6R,8R,9S,13S,14S)-6-(4-methoxybutyl)-13-methyl-7,8,9,11,12,13,14,15,16,17-decahydro-6H-cyclopenta[a]phenanthrene-3,17-diol]
IC50 [1]: 60 µM | IC50 [2]: 16 µM | IC50 [3]: 34 µM

COC[C@@H]1C[C@@H]2[C@H](CC[C@]3(C)C(O)CC[C@@H]23)[C@@]2(C)CCC(O)CC12 (stereo partly drawn) [Compound 9, (6R,8R,9S,10R,13S,14S)-6-(methoxymethyl)-10,13-dimethylhexadecahydro-1H-cyclopenta[a]phenanthrene-3,17-diol]
IC50 [1]: > 1000 µM | IC50 [2]: > 1000 µM | IC50 [3]: > 1000 µM

COCCCCCC[C@@H]1C[C@@H]2[C@H](CC[C@]3(C)C(O)CC[C@@H]23)c2ccc(O)cc21 (stereo partly drawn) [Compound 21, (6R,8R,9S,13S,14S)-6-(6-methoxyhexyl)-13-methyl-7,8,9,11,12,13,14,15,16,17-decahydro-6H-cyclopenta[a]phenanthrene-3,17-diol]
IC50 [1]: 24 µM | IC50 [2]: 23 µM | IC50 [3]: 17 µM

CCC(CCCCC[C@@H]1C[C@@H]2[C@H](CC[C@]3(C)C(O)CC[C@@H]23)c2ccc(O)cc21)OC (stereo partly drawn) [Compound 22, (6R,8R,9S,13S,14S)-6-(6-methoxyoctyl)-13-methyl-7,8,9,11,12,13,14,15,16,17-decahydro-6H-cyclopenta[a]phenanthrene-3,17-diol]
IC50 [1]: 20 µM | IC50 [2]: 22 µM | IC50 [3]: 13 µM
